The results in this text go back to patent US9730906B2, “α-derivatives of cis-monounsaturated fatty acids for use as medicines” (UNIVERSITAT DE LES ILLES BALEARS, priority 2008, dated 2017).

The test system of one test is A549 cells. Description: Growth/viability of A549 lung cancer cells in culture (cell count). In kind it is cell-based, human. Particulars: 150 μM, 48 hours, A549. How it is done: FIG. 3A. Cancer cells (A549) were treated with various concentrations of OHOD and MOD11 to determine whether the effect was dependent on the concentration. […] These cells were treated with different concentrations (0-400 μM) of OHOD and MOD11 and the number of cells was determined by flow cytometry.
FIG. 3B. Cancer cells (A549) were treated with compounds indicated on the horizontal axis for 48 hours at 150 μM. Then, the cells were counted and their number and percent of untreated (control) represented on the vertical axis.
Also, a series of α-derivatives of cis-monounsaturated fatty acids were used to investigate their effectiveness in cancer treatment. Two types of experiment were performed. Firstly, the dependency of the anti-tumour effect on concentration was investigated. To perform these experiments, human lung cancer cells (A549) were cultivated in RPMI medium, supplemented with 10% foetal bovine […], 10 mM Hepes (pH 7.4), 2 mM glutamine, 2 g/l bicarbonate, 1 g/l glucose, 100 units/ml penicillin, 0.1 mg/ml streptomycin, 0.25 μg/ml Amphotericin B, at 37° C. and in the presence of 5% CO2. In a first experimental series, these cells were treated with various concentrations (0-400 μM) of OHOD and MOD11 and the number of cells was determined by flow cytometry (FIG. 3A). […] In a second series, the anti-tumour effectiveness on A549 lung cancer cells was investigated at a single concentration (150 μM) and a time of 48 hours (FIG. 3B). […] Obviously, among the previous molecules, some lacked both modifications on the α-carbon and the double bond in cis configuration (EO, HDO, ODO) and had no therapeutic effect. […]

Test [1] in a line: Rat obesity induced by cafeteria diet, preventative pre-treatment (Table 3). Particulars: 300 mg/kg oral, after two weeks on cafeteria diet; obese control 308 ± 17, lean control 280 ± 16; * lower than obese controls, ‡ indistinguishable. In kind it is in vivo, Wistar Kyoto rats. Here is the method:
In a further experiment, the effect of various molecules at a single dose (600 mg/kg) was investigated. […] In this sense, modification on the α-carbon and the double bond in cis configuration are crucial elements for producing the therapeutic effect indicated above. […] Finally, the effect of α-derivatives of cis-monounsaturated fatty acids on the prevention of obesity was investigated. For this, a model of rat obesity induced by a cafeteria diet, where the hypercaloric food increases the weight of the animals very markedly, was used. There were various experimental groups (see Table 3), each of which consisted of 6 female Wistar Kyoto rats of 250-300 g in weight. All the animals received a standard diet for 2 weeks. In addition, 2 of the groups received an oral preventative pre-treatment of vehicle and the other groups received 300 mg/kg of the fatty acids indicated below. Afterwards, one of the control groups was maintained on a standard diet (lean control) and the other was fed on a cafeteria diet (obese control). The treated animal groups were fed on the cafeteria diet. Preventative pre-treatment was maintained for all the groups. After two weeks on these diets, the lean control group had increased their body weight by an average of 16±16 g, while the obese control group had increased their body weight by an average of 43±17 g (statistically significance difference, p<0.01).
The weight of treated animals was statistically less than the weight of obese control rats and statistically indistinguishable from that of lean control rats.

Regarding `CCCCCCCCCCCCCCCCCCCC(=O)O` [EO, Eicosanoic, reference compound], the “tumour cell growth (number of cells, percent of untreated)” value in the test with A549 cells is “did not show anti-tumour effectiveness”. In addition, the Final weight in test [1] is 298 ± 12‡ g.
For the compound `CCCCCCCCCCCCCCCC(=O)O` [HDO, Hexadecanoic, reference compound], the “tumour cell growth (number of cells, percent of untreated)” value in the test with A549 cells was “did not show anti-tumour effectiveness”. In addition, the Final weight in test [1] is listed as 299 ± 15‡ g.
Turning to `CCCCCCCC/C=C/CCCCCCCC(=O)O` [OD, Trans-Octadecenoic, reference compound], the “tumour cell growth (number of cells, percent of untreated)” value in the test with A549 cells was “did not show anti-tumour effectiveness”. Moreover, in test [1], the Final weight was 311 ± 17‡ g.
Taken in the same sequence, the figures for `CCCCCCCCCCCCCCCCCC(=O)O` [ODO, Octadecanoic, reference compound] were “did not show anti-tumour effectiveness” and 301 ± 18‡ g.
Taken in the same sequence, the figures for `CCCCCCCCCCCCCCCCC(O)C(=O)O` (stereo not drawn) [OHS, α-Hydroxy-octadecanoic, reference compound] were “lacked anti-tumour effectiveness” and 314 ± 11‡ g.
On the same counts, the results for `CCCCCCCC/C=C/CCCCCCC(O)C(=O)O` (stereo not drawn) [tOHOD, α-Hydroxy-trans-octadecenoic, reference compound] are “lacked anti-tumour effectiveness” and 312 ± 19‡ g.
As to Cis-Docosenoic [DE, reference compound], the “tumour cell growth (number of cells, percent of untreated)” value in the test on A549 cells is recorded as “did not show anti-tumour effectiveness”. Further, the Final weight in test [1] was 305 ± 12‡ g.
Cis-Eicosenoic [EE, reference compound]: the “tumour cell growth (number of cells, percent of untreated)” value with A549 cells was “did not show anti-tumour effectiveness”. Further, the Final weight in test [1] is 301 ± 17‡ g.
Taken in the same sequence, the figures for “Trans-Hexadecenoic [HD, reference compound]” were “did not show anti-tumour effectiveness” and 309 ± 15‡ g.
